The source made the active and inactive calls.
Experiments:
fMet-Leu-Phe receptor = fMet-Leu-Phe receptor (Homo sapiens, UniProt P21462); assay: formyl peptide receptor binders – dose response (AID 519); format: functional
[1] = viability of uninfected HEp-2 cells – cell-based, HTS, cytotoxicity control for RSV inhibitor project, dose response (AID 2410); format: functional; details: human respiratory syncytial virus
cells [2] = format: functional, cell-based
[3] = target: T1, Nuclear receptor subfamily 0 group B member 1 (Homo sapiens, UniProt P51843); format: functional, cell-based;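 note: HEK293T cells transfected with SF-1 and DAX-1 plus StAR promoter luciferase reporter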
T1 sequence (P51843 whole entry): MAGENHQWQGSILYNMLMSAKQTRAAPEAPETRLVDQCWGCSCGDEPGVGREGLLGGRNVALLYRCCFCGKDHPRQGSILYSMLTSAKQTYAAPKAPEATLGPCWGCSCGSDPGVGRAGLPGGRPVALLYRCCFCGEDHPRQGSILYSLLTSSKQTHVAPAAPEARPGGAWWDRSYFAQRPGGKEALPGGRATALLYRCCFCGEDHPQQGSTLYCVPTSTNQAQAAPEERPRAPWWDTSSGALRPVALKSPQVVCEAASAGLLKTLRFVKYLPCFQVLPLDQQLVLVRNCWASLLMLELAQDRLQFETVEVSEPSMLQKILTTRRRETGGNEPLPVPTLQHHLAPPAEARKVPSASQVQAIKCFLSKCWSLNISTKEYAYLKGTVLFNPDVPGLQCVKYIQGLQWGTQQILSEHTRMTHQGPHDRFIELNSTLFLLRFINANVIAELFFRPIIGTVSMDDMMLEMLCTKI

Estrogen receptor = target: T2, Estrogen receptor (Homo sapiens, UniProt P03372); assay: ERα coactivator recruitment enhancers – biochemical, TR-FRET, ERα LBD, dose response (AID 737)
T2 sequence (P03372 whole entry): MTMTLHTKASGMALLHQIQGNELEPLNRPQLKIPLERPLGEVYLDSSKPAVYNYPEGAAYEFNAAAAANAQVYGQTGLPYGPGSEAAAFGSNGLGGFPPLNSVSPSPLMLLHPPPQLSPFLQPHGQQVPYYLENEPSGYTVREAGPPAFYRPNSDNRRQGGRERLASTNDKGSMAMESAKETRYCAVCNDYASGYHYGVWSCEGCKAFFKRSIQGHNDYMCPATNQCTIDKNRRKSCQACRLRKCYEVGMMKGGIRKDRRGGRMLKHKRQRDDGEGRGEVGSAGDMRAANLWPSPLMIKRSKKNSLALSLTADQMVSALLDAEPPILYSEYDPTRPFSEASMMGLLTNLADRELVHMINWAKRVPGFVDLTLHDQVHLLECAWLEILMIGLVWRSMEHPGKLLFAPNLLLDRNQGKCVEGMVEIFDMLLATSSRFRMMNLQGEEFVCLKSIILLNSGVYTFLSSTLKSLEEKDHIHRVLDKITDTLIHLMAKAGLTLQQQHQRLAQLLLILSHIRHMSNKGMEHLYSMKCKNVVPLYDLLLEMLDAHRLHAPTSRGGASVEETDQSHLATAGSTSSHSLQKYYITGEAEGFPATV

cells [4] = assay: cells
[5] = target: T3, RNA-binding protein pos-1 (Caenorhabditis elegans, UniProt G5EF15); assay: disruptors of C. elegans POS-1 RNA interaction – biochemical, fluorescence polarization, dose response (AID 1964);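 note: purified POS-1 fused to maltose binding protein made in E. coli; potency of compounds blocking POS-1 binding to fluorescent RNA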
T3 sequence (G5EF15 whole entry): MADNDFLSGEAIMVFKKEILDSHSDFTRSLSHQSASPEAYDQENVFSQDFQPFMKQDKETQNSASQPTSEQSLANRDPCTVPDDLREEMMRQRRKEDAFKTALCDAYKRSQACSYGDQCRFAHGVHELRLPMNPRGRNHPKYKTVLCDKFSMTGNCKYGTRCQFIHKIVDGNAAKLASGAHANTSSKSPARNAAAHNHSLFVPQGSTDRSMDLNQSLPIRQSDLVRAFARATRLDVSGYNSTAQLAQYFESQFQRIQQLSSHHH

[6] = target: T4, Zinc finger protein mex-5 (Caenorhabditis elegans, UniProt Q9XUB2); assay: potency of MEX-5 RNA-binding blockers – biochemical, C. elegans, fluorescence polarization, dose response (AID 1960)
T4 sequence (Q9XUB2 whole entry): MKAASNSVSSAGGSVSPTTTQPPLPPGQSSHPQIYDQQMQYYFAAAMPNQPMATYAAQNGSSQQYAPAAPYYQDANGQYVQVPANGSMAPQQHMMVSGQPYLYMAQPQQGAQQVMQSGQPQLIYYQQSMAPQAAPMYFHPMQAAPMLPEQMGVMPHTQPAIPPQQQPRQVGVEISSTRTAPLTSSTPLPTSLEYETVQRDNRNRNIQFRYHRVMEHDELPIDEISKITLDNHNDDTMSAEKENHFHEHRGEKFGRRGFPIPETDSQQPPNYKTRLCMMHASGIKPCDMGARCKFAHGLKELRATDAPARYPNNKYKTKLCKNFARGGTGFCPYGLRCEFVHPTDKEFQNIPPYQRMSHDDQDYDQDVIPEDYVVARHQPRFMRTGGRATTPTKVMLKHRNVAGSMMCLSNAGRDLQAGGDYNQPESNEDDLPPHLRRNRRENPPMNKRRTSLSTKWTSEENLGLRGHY

[7] = target: T5, Oxysterols receptor LXR-beta (Homo sapiens, UniProt P55055); format: functional, cell-based;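 note: Cell-based luminescence dose-response assay of agonist activity at LXR, run as a confirmatory counterscreen to a daf-12 agonist screen; HEK293 cells with Gal4-LXR fusion and GAL4-driven luciferase reporter; agonist potency from rising luciferase signal of a Gal4-LXR reporter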
T5 sequence (P55055 whole entry): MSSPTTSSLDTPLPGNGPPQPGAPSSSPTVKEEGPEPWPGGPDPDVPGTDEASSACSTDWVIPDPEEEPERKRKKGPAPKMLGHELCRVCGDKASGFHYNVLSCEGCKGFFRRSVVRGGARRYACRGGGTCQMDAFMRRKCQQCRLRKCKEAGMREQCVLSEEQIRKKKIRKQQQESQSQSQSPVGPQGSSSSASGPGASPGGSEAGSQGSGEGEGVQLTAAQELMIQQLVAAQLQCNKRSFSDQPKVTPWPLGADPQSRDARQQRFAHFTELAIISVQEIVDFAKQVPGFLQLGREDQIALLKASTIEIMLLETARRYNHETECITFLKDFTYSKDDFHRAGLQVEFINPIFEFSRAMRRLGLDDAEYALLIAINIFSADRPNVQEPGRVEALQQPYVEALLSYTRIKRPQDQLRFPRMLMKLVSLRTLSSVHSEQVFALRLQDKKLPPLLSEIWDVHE

[8] = target: Mitogen-activated protein kinase 10 (Homo sapiens, UniProt P53779); assay: Dose response biochemical screening assay for inhibitors of c-Jun N-Terminal Kinase 3 (JNK3). [Related pubchem assays: 746 ]
[9] = target: Peroxisome proliferator-activated receptor gamma/Nuclear receptor coactivator 3 (Homo sapiens, UniProt P37231); assay: TR-FRET dose response biochemical High Throughput Screening assay for agonists of the steroid receptor coactivator 3 (SRC-3) recruitment by the peroxisome proliferator-activated receptor gamma (PPAR gamma): non-selective agonists. [Related pubchem assays: 1301 (Confirmation screen.), 1048 (Primary screen.)]; format: functional
[10] = target: Peroxisome proliferator-activated receptor gamma/Nuclear receptor coactivator 2 (Homo sapiens, UniProt P37231); assay: (§1) TR-FRET dose response biochemical High Throughput Screening assay for agonists of the steroid receptor coactivator 2 (SRC-2) recruitment by the peroxisome proliferator-activated receptor gamma (PPAR gamma): non-selective agonists. [Related pubchem assays: 1297, 1032 ]; format: functional
Major prion protein = Major prion protein (Homo sapiens, UniProt P04156); format: functional, cell-based
cells [11] = assay: cells; remark: listed apart in the source
[12] = target: Peroxisome proliferator-activated receptor gamma/Nuclear receptor coactivator 1 (Homo sapiens, UniProt P37231); assay: as §1, with “1 (SRC-1)” for “2 (SRC-2)”, “assays (depositor defined):AID1300, AID1808, AID504735, AID631]” for “assays: 1297, 1032 ]”; format: protein assay
Protein Tat = Protein Tat (Human immunodeficiency virus type 1 group M subtype B (isolate HXB2)(HIV-1), UniProt P04608); format: functional;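 note: tat binding to TAR RNA read out by fluorescence polarization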
[13] = IGROV1 cell killing – plate reader, dry powder samples, PAX8 inhibitor project, dose response (AID 743043); format: functional, cell-based; details: IGROV-1
Paired box protein Pax-8 = Paired box protein Pax-8 (Homo sapiens, UniProt Q06710); assay: PAX8 transcriptional activity inhibition in RMG-I – RMG-I cells, luciferase, cherry-pick, dose response (AID 687027); format: functional, cell-based;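 note: luciferase reporter driven by Pax8 target thyroperoxidase promoter measured by SteadyGlo luminescence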
[14] = OVCAR-3 cell viability loss – plate reader, dry powder samples, PAX8 inhibitor project, dose response (AID 743044); format: functional, cell-based
cells [15] = details: HEK293
[16] = viability loss in HepG2 liver cells – cell-based, ATP luminescence, cherry-pick, set 6, cytotoxicity control, dose response (AID 1053125); format: functional
cells [17] = details: A549
[18] = A549 cell cytotoxicity, dose response, cytotoxicity control, plate reader, cherry-pick, antagonist series (AID 743412); format: functional, cell-based
[19] = toxicity toward HepG2 liver cells – cell-based, plate reader, cherry-pick, antagonist series, cytotoxicity control, dose response (AID 743416); format: functional
[20] = target: NAD-dependent protein deacylase sirtuin-5, mitochondrial (Homo sapiens, UniProt Q9NXA8); assay: sirtuin-5 deacylation blockers, concentration series – biochemical, fluorescence imaging, cherry-pick, set 5, dose response (AID 720591);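 note: desuccinylation of succinyl peptide AMC substrate read as fluorescence after trypsin release; potency of inhibitors that lower fluorescence and may act on trypsin instead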
Escherichia coli [21] = assay: microbe, parasite or virus in culture
Escherichia coli [22] = assay: microbe, parasite or virus in culture; remark: listed apart in the source
[23] = T. cruzi growth inhibition in host cells, dose response, cell-based, plate reader, dry powder, set 2 (AID 652275); format: functional
[24] = Luminescence Cell-Based Dose Response HTS to Identify Inhibitors of 5'UTR Stem-Loop Driven Prion Protein mRNA Translation in H4 Neuroglioblastoma Cells. [Related pubchem assays: 1827 (Project Summary), 1813 (Primary HTS)]; format: functional
INS1 = assay: INS-1E survival protection against cytokine death – cell-based, luminescence, retest, dose response (AID 449756); format: functional; details: Rattus norvegicus;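 note: cell death triggered by IL-1 beta plus TNF-alpha plus IFN-gamma mixture; protective hits raise ATP signal compared with cytokine alone wells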
BJ [25] = assay: cells; format: functional, cell-based; details: Homo sapiens
BJ [26] = assay: BJ-TERT-LT-ST fibroblast viability loss – cell-based, RAS-independent, luminescence, dose response (AID 1935); format: functional; details: Homo sapiens;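 note: BJ fibroblasts immortalized with TERT plus LT and ST oncogenes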
[27] = luciferase reporter signal suppression in cells – H4 neuroglioma cells, luminescence, dose response (AID 1990); format: functional, cell-based
[28] = DRD fibroblast viability loss – cell-based, non-viral oncogenic, luminescence, dose response (AID 1934); format: functional; details: Homo sapiens
BJ [29] = assay: BJ-TERT fibroblast viability loss – cell-based, RAS-independent, luminescence, dose response (AID 1933); format: functional; details: Homo sapiens
[30] = viability loss in HEK293T cells – cell-based, cherry-picks, cytotoxicity control for HIV Vif inhibitor project, dose response (AID 652208); format: functional
BJ [31] = assay: growth inhibition of engineered Ras-driven BJ cells – cell-based, alamar blue fluorescence, cherrypicked samples, dose response (AID 2631); format: functional; details: Homo sapiens;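 note: confirmatory dose-response assay in RAS-dependent BJ fibroblasts engineered with TERT, LT and ST, with cytotoxicity read by fluorescence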

Cc1nc2c(-c3ccc(F)cc3)c(C)nn2c(C)c1CCC(=O)NC(C)CCc1ccco1 (stereo unspecified)
Ki (fMet-Leu-Phe receptor): > 66.7 µM (inactive) | CC50 [1]: > 50 µM (active)

CN1CCN(c2ccc(-c3cccc(NC(=O)COc4ccccc4)c3)nn2)CC1
IC50 (cells [2]): > 67.5 µM (inactive) | IC50 [3]: > 67.5 µM (inactive)

Cc1ccc2ccc(C3C(=O)c4ccccc4C3=O)nc2c1
EC50 (Estrogen receptor): 13.2 µM (not active) | EC50 (cells [4]): > 67.6 µM (inactive) | EC50 [5]: > 300 µM (not active) | EC50 [6]: 48.4 µM (active) | EC50 [7]: > 67.6 µM (inactive)

COc1ccc2c(Cl)c(C(N)=O)sc2c1
IC50 [8]: 68.3 µM (not active) | EC50 [9]: > 79.4 µM (not active) | EC50 [10]: 16.7 µM (not active) | IC50 (Major prion protein): 2.46 µM (active) | IC50 (cells [11]): > 138 µM (inactive) | EC50 [12]: > 79.4 µM (inactive)

COc1ccc(CCNC(=O)CN2CCCc3ccccc32)cc1OC
IC50 (Protein Tat): > 100 µM (active)

C[C@H](CO)N1C[C@H](C)[C@H](CN(C)Cc2ccc(C(F)(F)F)cc2)OCCCC[C@H](C)Oc2ccc(NC(=O)Nc3ccc4c(c3)OCO4)cc2C1=O
AC50 [13]: 40.3 µM (active) | AC50 (Paired box protein Pax-8): 5.42 µM (active) | AC50 [14]: 28.6 µM (active)

CC(=O)Nc1cccc(-c2ccnc3c2CC(C(=O)NCc2cccc(Cl)c2)O3)c1 (stereo unspecified)
AC50 (cells [15]): 40.1 µM (active) | AC50 [16]: > 52 µM (inactive) | AC50 (cells [17]): > 52 µM (inactive)

Cn1c(=O)c2cc(NC(=O)NCc3ccccc3)ccc2n1C/C=C/c1ccccc1
AC50 [18]: 18.2 µM (active) | AC50 [19]: 36.9 µM (active)

C=C1c2cccc(O)c2C(=O)C2C(=O)[C@]3(O)C(=O)C(C(N)=O)C(=O)[C@@H](N(C)C)[C@@H]3[C@@H](O)[C@H]12 (stereo partly specified)
AC50 [20]: 12.7 µM (active) | AC50 (Escherichia coli [21]): 2.19 µM (active) | AC50 (Escherichia coli [22]): 31.7 µM (active)

COc1ccc(C2C(C(=O)c3ccco3)=C(O)C(=O)N2CCc2ccccc2)cc1OC (stereo unspecified)
Ki (fMet-Leu-Phe receptor): 36.9 µM (inactive)

c1ccc(-c2csc(Nc3ccc4c(c3)OCCO4)n2)cc1
EC50 (cells [4]): > 67.5 µM (inactive) | EC50 [7]: > 67.5 µM (inactive)

COc1cccc(CN(C)C[C@H]2Oc3c(NC(=O)c4ccncc4)cccc3C(=O)N([C@@H](C)CO)C[C@@H]2C)c1
AC50 [23]: 0.0568 µM (active)

Cc1ccc(C(=O)Nc2ncccc2O)o1
IC50 (cells [2]): > 67.6 µM (inactive) | IC50 [3]: 24.7 µM (inactive)

CC1CN(S(=O)(=O)c2ccc(C(=O)NCCCn3ccnc3)cc2)CC(C)O1 (stereo unspecified)
EC50 [24]: 7.94 µM (active) | AC50 (INS1): 1.17 µM (active) | EC50 (BJ [25]): 5.83 µM (inconclusive) | EC50 (BJ [26]): 3.76 µM (inconclusive) | EC50 [27]: 11.1 µM (active) | EC50 [28]: 13.2 µM (active) | EC50 (BJ [29]): > 150 µM (not active) | AC50 [30]: > 52 µM (inactive) | EC50 (BJ [31]): 0.39 µM (active)

CCN(C)C[C@H]1Oc2c(NC(=O)c3ccncc3)cccc2C(=O)N(C(C)C)[C@@H]1C
AC50 [23]: 0.0842 µM (active)

O=C(c1ccc(F)cc1)c1cn(Cc2ccc(F)cc2)c2cc3c(cc2c1=O)OCCO3
IC50 (Major prion protein): 3.03 µM (active) | IC50 (cells [11]): > 138 µM (inactive)

COC(=O)c1ccc2nc(-c3ccc(OC)c(OC)c3)c(Cc3ccccc3C(F)(F)F)n2c1
AC50 [20]: > 30 µM (inactive)

Source: ChEMBL document CHEMBL1201862, “PubChem BioAssay data set” (2004)
